From PubChem BioAssay AID1918931 (Molecular Pharmacology Branch, DTP, NCI, 2023)
pIC50: −log10 of the molar value. Several values for one entry are separate records, joined by “and”; a condition that tells them apart may be missing. Equal entries are not always repeated.

Test system: 138582-337-R-J1-PDC complex spheroid viability
Test: Anticancer human tumor 138582-337-R-J1-PDC patient-derived Merkel cell tumor cell line growth inhibition
Conditions: for viability, T/C: stronger effect = lower value
Source text: Multicellular complex tumor spheroid response to LSD1 Inhibitor Iadademstat in combination with a variety of drugs and investigational agents in selected tumor cell lines
The current study was undertaken to assess response to LSD1 inhibitors in combination with standard-of-care drugs and investigational agents in solid tumor complex spheroid models as well as in the K-562 leukemia. Complex spheroids include a stromal component modeled by human endothelial cells (HUVEC) and fibroblasts modeled by human mesenchymal stem cells (MSCs). The concentration ranges selected for each drug and investigational agent were based upon clinically achievable concentrations if the clinical Cmax of the agent was known.
Compounds. The drugs and investigational agents used in this study are listed on Table 1. All of the agents used, including staurosporine (NSC755774) and gemcitabine (NSC613327), were obtained from the Developmental Therapeutics Program, NCI. FDA-approved anticancer drugs are available from the NCI at http://dtp.nci.nih.gov/branches/dscb/oncology_drugset_explanation.html. Drugs and investigational agents were >95% pure by proton nuclear magnetic resonance (NMR) and liquid chromatography/mass spectrometry (LC/MS). Stock solutions were prepared at 400x in DMSO, stored at -70 degrees C, and diluted in fresh medium prior to their use. The final concentration of DMSO in cell culture wells never exceeded 0.25% (v/v). The FDA-approved anticancer drug set is available from the Developmental Therapeutics Program at https://dtp.cancer.gov/organization/dscb/obtaining/available_plates.htm. All drugs and investigational agents were tested over a range starting from a high concentration at or near the clinical Cmax and decreasing in half-log increments. If the clinical Cmax for an agent had not been determined, the highest concentration tested was 10 microM.
Cell Lines. The patient-derived cancer cell (PDC) lines: 292921-168-R-J2-PDC, K24384-001-R-PDC, and 521955-158-R2-J5-PDC pancreatic carcinomas, 556581-035-R-J1 ovarian carcinoma, 324938-238-R-J1-PDC, 855422-203-R-J1-PDC and 883617-216-R-J1-PDC urothelial bladder carcinomas, 743489-274-T-PDC renal cell carcinoma, 138582-R-J1 Merkel cell tumor, K60290-347-R-J1 and K57222-313-R-J1-PDC glioblastomas, 653999-131-R-J2-PDC, LG0703-F948-PDC, and 349418-098-R-PDC non-small cell lung carcinomas, 885512-296-R-J2-PDC, 171881-019-R-J1-PDC breast carcinomas and 186277-243-T-J2-PDC and 233499-124-R-J2-PDC colon carcinomas were obtained from the NCI Patient-Derived Models Repository (PDMR, https://pdmr.cancer.gov). The established cell lines NCI/ADR-RES (RRID:CVCL_14520 and OVCAR-5 (RRID:CVCL_1628) ovarian carcinomas, 786-O (RRID:CVCL_1051) and A498 (RRID:CVCL_A498) renal cell carcinoma, NCI-H211 (ATCC, cat. CRL-5824; RRID:CVCL_1529), NCI-H196 (ATCC, cat. CRL-5823, RRID:CVCL_1509), SW 1271 (ATCC, cat. CRL-2177, RRID:CVCL_1716) and NCI-H1876 (ATCC, cat. CRL-5902, RRID:CVCL_1503) small cell lung carcinomas, MDA-MB-231 (RRID:CVCL_0062) and MDA-MB-468 (RRID:CVCL_0419)breast carcinomas (10-12). Pooled donor human umbilical vein endothelial cells (HUVEC, Lonza, cat. CC-2519) and human mesenchymal stem cells (hMSC, Lonza, cat. PT-2501) were purchased from Lonza (Walkersville, MD).
Cell Culture. All cells were maintained in an incubator at 37 degrees C and 5% CO2 with 95% humidity. The PDC lines were cultured according to standard operating procedures established by the NCI PDMR (https://pdmr.cancer.gov). Briefly all PDCs were thawed and cultured in Matrigel-coated flasks prepared with a working solution of 1X Ham's F-12 nutrient mix, without supplementation (Invitrogen, Waltham, MA, cat. 11765054), 100 U/mL penicillin-streptomycin (Invitrogen, cat. 15140122), and 2.5% Matrigel (Corning Inc., Corning, NY, cat. 354248) for the first three passages. […]
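Further: spheroids exposed to agents for 7 days.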
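Wherever viability, T/C is given: 100% = DMSO vehicle control viability.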

NC1CCC(NC2CC2c2ccccc2)CC1 (centres undefined) was tested, and the viability, T/C (compound 0.316 µM) was 95.6% and 95.3% and the pIC50 (compound alone, run of 01/24/2022) was < 5.00.
In the case of O=C(C=Cn1cnc(-c2cc(C(F)(F)F)cc(C(F)(F)F)c2)n1)NNc1cnccn1 + NC1CC1c1ccc(-c2cccc(O)c2)cc1, the pIC50 (curve of first compound, second compound 0.1 µM) was 7.94, the pIC50 (curve of first compound, second compound 0.316 µM) was 7.98 and the pIC50 (curve of first compound, second compound 1 µM) was 8.23. For the same compound, the pIC50 (curve of first compound, second compound 3.16 µM) was 8.23, the pIC50 (curve of first compound, second compound 10 µM) was 7.80 and the viability, T/C (second compound 0.1 µM, first compound 0.00316 µM) was 60.7%. It also gave a viability, T/C (second compound 0.1 µM, first compound 0.01 µM) of 53%, a viability, T/C (second compound 0.1 µM, first compound 0.0316 µM) of 27.8% and a viability, T/C (second compound 0.1 µM, first compound 0.1 µM) of 17.4%. It also gave a viability, T/C (second compound 0.1 µM, first compound 0.316 µM) of 16.3%, a viability, T/C (second compound 0.1 µM, first compound 1 µM) of 15.7% and a viability, T/C (second compound 0.316 µM, first compound 0.00316 µM) of 56.7%. The viability, T/C (second compound 0.316 µM, first compound 0.01 µM) was 50.4%, the viability, T/C (second compound 0.316 µM, first compound 0.0316 µM) was 28.1% and the viability, T/C (second compound 0.316 µM, first compound 0.1 µM) was 16.2%. It also gave a viability, T/C (second compound 0.316 µM, first compound 0.316 µM) of 17.3%, a viability, T/C (second compound 0.316 µM, first compound 1 µM) of 21% and a viability, T/C (second compound 1 µM, first compound 0.00316 µM) of 55.2%. For the same compound, the viability, T/C (second compound 1 µM, first compound 0.01 µM) was 44.8%, the viability, T/C (second compound 1 µM, first compound 0.0316 µM) was 33.8% and the viability, T/C (second compound 1 µM, first compound 0.1 µM) was 21.1%. The viability, T/C (second compound 1 µM, first compound 0.316 µM) was 18.6%, the viability, T/C (second compound 1 µM, first compound 1 µM) was 23.8% and the viability, T/C (second compound 3.16 µM, first compound 0.00316 µM) was 55.2%. For the same compound, the viability, T/C (second compound 3.16 µM, first compound 0.01 µM) was 46%, the viability, T/C (second compound 3.16 µM, first compound 0.0316 µM) was 29.3% and the viability, T/C (second compound 3.16 µM, first compound 0.1 µM) was 22.1%. For the same compound, the viability, T/C (second compound 3.16 µM, first compound 0.316 µM) was 22.6%, the viability, T/C (second compound 3.16 µM, first compound 1 µM) was 17.3% and the viability, T/C (second compound 10 µM, first compound 0.00316 µM) was 55.4%. The viability, T/C (second compound 10 µM, first compound 0.01 µM) was 53.1%, the viability, T/C (second compound 10 µM, first compound 0.0316 µM) was 44.6% and the viability, T/C (second compound 10 µM, first compound 0.1 µM) was 35.1%. The viability, T/C (second compound 10 µM, first compound 0.316 µM) was 24.9% and the viability, T/C (second compound 10 µM, first compound 1 µM) was 32.2%.
For CC(C)CC(NC(=O)CNC(=O)c1cc(Cl)ccc1Cl)B1OC(=O)CC(CC(=O)O)(C(=O)O)O1 (centres undefined), the viability, T/C (compound 0.000316 µM) was 105% and 94.4%, the viability, T/C (compound 0.001 µM) was 102% and 99.3% and the viability, T/C (compound 0.00316 µM) was 110% and 91.3%. For the same compound, the viability, T/C (compound 0.01 µM) was 30.4% and 42.1%, the viability, T/C (compound 0.0316 µM) was 4.94% and 1.75% and the viability, T/C (compound 0.1 µM) was 0.38% and 0.44%. For the same compound, the pIC50 (curve of compound) was 8.13 and 8.08.
